Laboratory results taken from patent US20240261236A1, “METHODS OF USING NMDA RECEPTOR ANTAGONISTS” (Seelos Therapeutics, Inc., priority 2021, published 2024).

Columns and labels:
[1] = system: adults with major depressive disorder (MDD) who are at imminent risk of suicide; test: S-STS CMCM clinician judgment, risk of suicide at this time; assay type: in vivo, human; conditions: 90 mg IN+SOC; for S-STS CMCM score (range 0-9; risk of suicide at this time, FIGS. 20A-20B): 24 hours post-administration
Description: The S-STS CMCM (version 01/01/19) is a clinician-rated outcome measure which assesses SI/B on a standard 22-item scale, as well as multiple patient and clinician-rated items. The first 16 items are rated on a Likert-type scale ranging from “not at all” (0 units) to “extremely” (4 units), where select scoring (i.e., 4 specific items are scored based on the highest score on 2 of those items) yields a total score ranging from 0 units to 52 units. The final 6 items are used only when the patient misses a visit and is unable to complete the scale; if that missed visit is due to attempted or completed suicide, the possible maximum score is 100. The CMCM also yields 5 different single-item global assessments: 1) subject-rated likelihood of a suicide attempt; 2) subject-rated treatment needed; 3) clinician global severity of suicidal impulses, thoughts, and behaviors; 4) clinician judgment of suicide risk at this time and level of management needed for suicidality; and 5) clinician judgment of subject's likelihood of making a suicide attempt or of dying by suicide in the next 7 days.
The secondary endpoints are the change from baseline at 24 hours, as well as at Day 16, in the following: • (1) S-STS total score • (2) MADRS Total at Day 16 (only) • (3) Clinical Global Impression (CGI) of Severity for SI/B (CGIS-SI/B) and Change in SI/B (CGIC-SI/B) • (4) Patient Global Impression (PGI) of Severity for SI/B (PGIS-SI/B) and Change in SI/B (PGIC-SI/B • (5) S-STS Clinician-Rated Global Severity of Suicidal Impulses, Thoughts, and Behaviors • (6) S-STS Clinician judgment of subject's risk of a suicide attempt or death by suicide at this time • (7) S-STS Clinician judgment of subject's likelihood (risk) of making a suicide attempt or of dying by suicide in the next 7 days • (8) S-STS Subject-rated global severity of suicidal impulses, thoughts, and behavior • (9) S-STS Subject-rated treatment needed score • (10) MADRS item 10 response rate (response ≤3 units) • (11) MADRS Total response (total score ≥50% reduction from baseline) • (12) MADRS Total remission (total score ≤12 units)

[2] = system: adults with major depressive disorder (MDD) who are at imminent risk of suicide; test: MADRS Total, Phase 2 Part 1 open-label; assay type: in vivo, human; conditions: for MADRS mean score: baseline 39.4; for MADRS remission rate (a score of less than 12) / MADRS response rate: summary through Day 29/30
Description: The Montgomery-Åsberg Depression Rating Scale (MADRS) is a diagnostic questionnaire that can be used to measure the severity of a depressive episode in a subject. In some embodiments, the MADRS can be used to measure suicidal ideation. For example, the MADRS includes 10 items directed to the following: 1) apparent sadness (e.g., representing despondency, gloom and despair that is more than just ordinary transient low spirits that is reflected in speech, facial expression, and posture); 2) reported sadness (e.g., representing reports of depressed mood, regardless of whether it is reflected in appearance or not and can include low spirits, despondency or the feeling of being beyond help and without hope); 3) inner tension (e.g., representing feelings of ill-defined discomfort, edginess, inner turmoil, mental tension mounting to either panic, dread or anguish); 4) reduced sleep (e.g., representing the experience of reduced duration or depth of sleep compared to the subject's own normal pattern when well); 5) reduced appetite (e.g., representing the feeling of a loss of appetite compared with when-well); 6) concentration difficulties (e.g., representing difficulties in collecting one's thoughts mounting to an incapacitating lack of concentration); 7) lassitude (e.g., representing difficulty in getting started or slowness in initiating and performing everyday activities); 8) inability to feel (e.g., representing the subjective experience of reduced interest in the surroundings, or activities that normally give pleasure, and the ability to react with adequate emotion to circumstances or people is reduced); 9) pessimistic thoughts (e.g., representing thoughts of guilt, inferiority, self-reproach, sinfulness, remorse and ruin); and 10) suicidal thoughts (e.g., representing the feeling that life is not worth living, that a natural death would be welcome, suicidal thoughts, and preparations for suicide). Each item is rated from 0 units to 6 units, with 0 reflecting that the subject is not at all as described by the item and 6 reflecting that the subject is extremely like what is described by the item. […] As another example, for suicidal thoughts, a score of 0 units can indicate that the subject enjoys life or takes it as it comes; a score of 2 units can indicate that the subject is weary of life and may have fleeting suicidal thoughts; a score of 4 units can indicate that the subject feels he or she would probably be better off dead (e.g., suicidal thoughts are common, and suicide is considered as a possible solution, but without specific plans or intention); and a score of 6 units can indicate that the subject has explicit plans for suicide when there is an opportunity (e.g., the subject has made active preparations for suicide). Thus, the total score, after summation of each score for each item, is on a scale of 0 units to 60 units.
The study schedule is identical for Parts 1 and 2. After admission to the emergency room or hospital, each subject will participate in a 1 to 2 day screening phase, a 16-day treatment phase including SOC during which study drug will be administered 2 times per week, for a total of 5 doses across the 16-day treatment period and a 2-week safety follow-up phase for a total of up to 5 weeks of study participation. Subjects will be treated as inpatients for approximately 7 days (including screening), and assuming the subject meets readiness for discharge criteria, will be discharged on Day 6 to continue the trial as outpatients, provided it is clinically appropriate to do so. Subjects will return to the clinic to receive study drug and to undergo study assessments 2 times per week until Day 16. Subjects will be evaluated for efficacy using multiple psychometric scales and for safety using clinical laboratory assessments, electrocardiograms (ECGs), vital signs, and physical examinations. […]

SMILES: CNC1(c2ccccc2Cl)CCCCC1=O (racemic) [intranasal racemic ketamine, 1:1 mixture of the two enantiomers of ketamine: (R)-2-(2-chlorophenyl)-2-(methylamino)cyclohexanone and (S)-2-(2-chlorophenyl)-2-(methylamino)cyclohexanone]
- S-STS CMCM score (range 0-9; risk of suicide at this time, FIGS. 20A-20B) ([1]; Subject 1, baseline 7 units): 3 units
- S-STS CMCM score (range 0-9; risk of suicide at this time) ([1]; Subject 1, Day 9): 2 units
- S-STS CMCM score (range 0-9; risk of suicide at this time, FIGS. 20A-20B) ([1]; Subject 2, from 7 units): 3 units
- S-STS CMCM score (range 0-9; risk of suicide at this time) ([1]; Subject 2, Day 9): zero
- S-STS CMCM score (range 0-9; risk of suicide at this time) ([1]; Subjects 1 and 2, Day 8): 2 units
- MADRS Total ([2]; 90 mg IN+SOC, Subject 1, 24 hours post-administration, baseline 35 units): 8 units
- MADRS Total ([2]; 90 mg IN+SOC, Subject 2, 24 hours post-administration, baseline 38 units): 15 units
- MADRS Total ([2]; 90 mg IN+SOC, Subject 2, Day 8, after second dose on Day 4): 16 units
- MADRS Total reduction ([2]; 90 mg IN+SOC, both subjects, 24 hours): > 50%
- MADRS mean (SD) change from baseline ([2]; 17 subjects enrolled, 24 hours post-dose): −24.9 (8.34)
- MADRS mean (SD) change from baseline ([2]; 17 subjects enrolled, Day 16): −31.6 (7.31)
- subjects who experienced MADRS remission ([2]; 24 hours post-dose): 35.5%
- subjects who experienced MADRS response ([2]; 24 hours post-dose): 76.5%
- MADRS mean score ([2]; Day 1): 14.5
- subjects who experienced MADRS remission ([2]; Day 16): 78.6%
- subjects who experienced MADRS response ([2]; Day 16): 92.9%
- MADRS mean score ([2]; Day 16): 7.4
- MADRS mean score ([2]; Day 29): 6.3
- MADRS mean (SD) change from baseline ([2]; final follow-up on Day 29/30): −32.1 (7.4)
- mean MADRS score ([2]; final follow-up on Day 29/30): 6.3 (6.60)
- subjects who experienced MADRS remission ([2]; study end (Day 29/30)): 76.9%
- subjects who experienced MADRS response ([2]; study end (Day 29/30)): 100%
- MADRS remission rate (a score of less than 12) ([2]; Day 1): 23.5%
- MADRS response rate ([2]; Day 1): 76.5%
- MADRS remission rate (a score of less than 12) ([2]; Day 16): 78.6%
- MADRS response rate ([2]; Day 16): 92.9%
- MADRS response rate ([2]; Day 29, 14 days after the last dose on Day 15): 100%
